In brackets after ≈: the same amount, converted by molar mass.
What was measured:
Assay type in all cases: cell-based, Mycobacterium tuberculosis
[1] = system: M. tuberculosis clinical isolates, sensitive; experiment: microbe, parasite or virus in culture; settings: for MIC (μg/ml) against Clinical isolates Sensitive: Table I, agar dilution; for MIC: Mycobacterium tuberculosis, read-out: MIC (μg/ml) against Clinical isolates Sensitive
M. tuberculosis 27294 = experiment: In vitro agar dilution assay (MIC), reference strain; settings: for MIC (μg/ml) against M. tuberculosis-27294: Table I; for MIC: Mycobacterium tuberculosis, 27294, Table I, read-out: MIC (μg/ml) against M. tuberculosis-27294
[2] = system: M. tuberculosis H37Rv ATCC 27294; experiment: In vitro growth inhibition assay, BACTEC 460 TB system; parameters: key: +: If ΔGI of test vial is less than that of the control vial the culture was sensitive to the test compound; settings: final concentration 6.25 μg/ml

| SMILES | MIC (μg/ml) against Clinical isolates Sensitive [1] | MIC (μg/ml) against M. tuberculosis-27294 (M. tuberculosis 27294) | Growth inhibition of M. tuberculosis 27294 [2] | MIC [1] | MIC (M. tuberculosis 27294) |
| --- | --- | --- | --- | --- | --- |
| Cc1c(CN2CCN(c3ccc(F)cc3)CC2)cc(-c2ccccc2)n1NC(=O)c1ccncc1 [compound 11, N-(3-{[4-(4-fluorophenyl)piperazinyl]methyl}-2-methyl-5-phenylpyrrolyl)-4-pyridylcarboxamide] | 0.5 to 1.0 µg/mL | 1.0 µg/mL (≈ 2.13 µM) | + | – | – |
| COc1ccccc1N1CCN(Cc2cc(-c3ccccc3)n(NC(=O)c3ccncc3)c2C)CC1 [compound 13, N-(3-{[4-(2-methoxyphenyl)piperazinyl]methyl}-2-methyl-5-phenylpyrrolyl)-4-pyridylcarboxamide] | 0.5 to 2.0 µg/mL | 0.5 µg/mL (≈ 1.04 µM) | + | – | – |
| Cc1c(CN2CCN(c3ccccn3)CC2)cc(-c2ccccc2)n1NC(=O)c1ccncc1 [compound 14, N-(3-{[4-(2-pyridyl)piperazinyl]methyl}-2-methyl-5-phenylpyrrolyl)-4-pyridylcarboxamide] | 4.0 to 8.0 µg/mL | 4.0 µg/mL (≈ 8.84 µM) | + | – | – |
| Cc1c(CN2CCN(Cc3ccccc3)CC2)cc(-c2ccccc2)n1NC(=O)c1ccncc1 [compound 15, N-(2-methyl-5-phenyl-3-{[4-benzylpiperazinyl]methyl}pyrrolyl)-4-pyridylcarboxamide] | 0.5 to 1.0 µg/mL | 0.5 µg/mL (≈ 1.07 µM) | + | – | – |
| Cc1c(CN2CCN(C)CC2)cc(-c2ccccc2)n1NC(=O)c1ccncc1 [compound 16, N-{2-methyl-3-[(4-methylpiperazinyl)methyl]-5-phenylpyrrolyl}-4-pyridylcarboxamide] | 2.0 to 4.0 µg/mL | 2.0 µg/mL (≈ 5.13 µM) | + | – | – |
| Cc1c(CN2CCN(Cc3ccc4c(c3)OCO4)CC2)cc(-c2ccccc2)n1NC(=O)c1ccncc1 [compound 17, N-(3-{[4-(2H-benzo[d]1,3-dioxolan-5-ylmethyl)piperazinyl]methyl}-2-methyl-5-phenylpyrrolyl)-4-pyridylcarboxamide] | 2.0 to 4.0 µg/mL | 2.0 µg/mL (≈ 3.92 µM) | + | – | – |
| Cc1c(CN2CCSCC2)cc(-c2ccccc2)n1NC(=O)c1ccncc1 [compound 21, N-[2-methyl-5-phenyl-3-(1,4-thiazaperhydroin-4-ylmethyl)pyrrolyl]-4-pyridyl carboxamide] | 0.5 to 1.0 µg/mL | 0.5 µg/mL (≈ 1.27 µM) | + | – | – |
| Cc1cc(CN2CCN(c3ccc(F)cc3)CC2)c(-c2ccccc2)n1NC(=O)c1ccncc1 [compound 22, N-(3-{[4-(4-fluorophenyl)piperazinyl]methyl}-5-methyl-2-phenylpyrrolyl)-4-pyridylcarboxamide] | 2.0 to 4.0 µg/mL | 2.0 µg/mL (≈ 4.26 µM) | + | – | – |
| Cc1c(CN2CCN(c3ccc(F)cc3)CC2)cc(-c2ccccc2)n1NC(=O)c1cnccn1 [compound 25, N-(3-{[4-(4-fluorophenyl)piperazinyl]methyl}-2-methyl-5-phenylpyrrolyl)pyrazin-2-ylcarboxamide] | 2.0 to 4.0 µg/mL | 2.0 µg/mL (≈ 4.25 µM) | + | – | – |
| COc1ccccc1N1CCN(Cc2cc(-c3ccccc3)n(NC(=O)c3cnccn3)c2C)CC1 [compound 26, N-(3-{[4-(2-methoxyphenyl)piperazinyl]methyl}-2-methyl-5-phenylpyrrolyl) pyrazin-2-ylcarboxamide] | 2.0 µg/mL (≈ 4.14 µM) | 1.0 µg/mL (≈ 2.07 µM) | + | – | – |
| Cc1c(CN2CCN(c3cccc(C(F)(F)F)c3)CC2)cc(-c2ccccc2)n1NC(=O)c1cnccn1 [compound 27, N-(3-{[4-(3-trifluoromethylphenyl)piperazinyl]methyl}-2-methyl-5-phenylpyrrolyl)pyrazin-2-ylcarboxamide] | 1.0 to 4.0 µg/mL | 2.0 µg/mL (≈ 3.84 µM) | + | – | – |
| Cc1c(CN2CCN(Cc3ccc4c(c3)OCO4)CC2)cc(-c2ccccc2)n1NC(=O)c1cnccn1 [compound 29, N-(3-{[4-(2H-benzo[d]1,3-dioxolen-5-ylmethyl)piperazinyl]methyl}-2-methyl-5-phenylpyrrolyl)pyrazin-2-ylcarboxamide] | >16.0 µg/mL | >16.0 µg/mL | + | – | – |
| Cc1c(CN2CCN(C(c3ccccc3)c3ccccc3)CC2)cc(-c2ccccc2)n1NC(=O)c1cnccn1 [compound 30, N-(3-{[4-(diphenylmethyl)piperazinyl]methyl}-2-methyl-5-phenylpyrrolyl)-pyrazin-2-ylcarboxamide] | 2.0 to 4.0 µg/mL | 2.0 µg/mL (≈ 3.69 µM) | + | – | – |
| Cc1cc(CN2CCN(c3cccc(C(F)(F)F)c3)CC2)c(-c2ccccc2)n1NC(=O)c1cnccn1 [compound 33, N-(3-{[4-(3-trifluoromethylphenyl)piperazinyl]methyl}-5-methyl-2-phenylpyrrolyl)pyrazin-2-ylcarboxamide] | 2.0 to 8.0 µg/mL | 2.0 µg/mL (≈ 3.84 µM) | + | – | – |
| Cc1cc(CN2CCN(c3ccccn3)CC2)c(-c2ccccc2)n1NC(=O)c1cnccn1 [compound 34, N-(3-{[4-(2-pyridyl)piperazinyl]methyl}-5-methyl-2-phenylpyrrolyl)pyrazin-2-ylcarboxamide] | 16.0-16.0 μg/ml | 16.0 µg/mL (≈ 35.3 µM) | + | – | – |
| Cc1cc(CN2CCN(Cc3ccc4c(c3)OCO4)CC2)c(-c2ccccc2)n1NC(=O)c1cnccn1 [compound 35, N-(3-{[4-(2H-benzo[3,4-d]1,3-dioxolan-5-ylmethyl)piperazinyl]methyl}-5-methyl-2-phenylpyrrolyl)pyrazin-2-ylcarboxamide] | >16.0 µg/mL | >16.0 µg/mL | + | – | – |
| Cc1cc(CN2CCN(C(c3ccccc3)c3ccccc3)CC2)c(-c2ccccc2)n1NC(=O)c1cnccn1 [compound 36, N-(3-{[4-(diphenylmethyl)piperazinyl]methyl}-5-methyl-2-phenylpyrrolyl) pyrazin-2-ylcarboxamide] | 0.5 to 1.0 µg/mL | 0.5 µg/mL (≈ 0.921 µM) | + | – | – |
| Cc1c(CN2CCN(c3cccc(C(F)(F)F)c3)CC2)cc(-c2ccc(Cl)cc2)n1NC(=O)c1cnccn1 [compound 39, N-(5-(4-chlorophenyl)-3-{[4-(3-trifluoromethylphenyl)piperazinyl]methyl}-2-methylpyrrolyl)pyrazin-2-ylcarboxamide] | 4.0 to 8.0 µg/mL | 4.0 µg/mL (≈ 7.21 µM) | + | – | – |
| COc1ccccc1N1CCN(Cc2cc(C)n(NC(=O)c3cnccn3)c2-c2ccc(Cl)cc2)CC1 [compound 42, N-(2-(4-chlorophenyl)-3-{[4-(2-methoxyphenyl)piperazinyl]methyl}-5-methylpyrrolyl)pyrazin-2-ylcarboxamide] | 8.0 µg/mL (≈ 15.5 µM) | 8.0 µg/mL (≈ 15.5 µM) | + | – | – |
| Cc1c(CN2CCN(c3ccc(F)cc3)CC2)cc(-c2ccc(Cl)cc2)n1-c1ccc(F)cc1F [compound 44, 1-{[1-(2,4-difluorophenyl)-5-(4-chlorophenyl)-2-methylpyrrol-3-yl]methyl}-4-(4-fluorophenyl)piperazine] | – | – | + | 1 to 2 µg/mL (≈ 2.02 to 4.03 µM) | 1 µg/mL (≈ 2.02 µM) |
| COc1ccccc1N1CCN(Cc2cc(-c3ccc(Cl)cc3)n(-c3ccc(F)cc3F)c2C)CC1 [compound 45, 1-{[1-(2,4-difluorophenyl)-5-(4-chlorophenyl)-2-methylpyrrol-3-yl]methyl}-4-(2-methoxyphenyl)piperazine] | – | – | + | 0.5 to 2 µg/mL (≈ 0.984 to 3.94 µM) | 0.5 µg/mL (≈ 0.984 µM) |
| Cc1c(CN2CCN(c3cccc(C(F)(F)F)c3)CC2)cc(-c2ccc(Cl)cc2)n1-c1ccc(F)cc1F [compound 46, 1-{[1-(2,4-difluorophenyl)-5-(4-chlorophenyl)-2-methylpyrrol-3-yl]methyl}-4-(3-trifluoromethylphenyl)piperazine] | – | – | + | 2 to 4 µg/mL (≈ 3.66 to 7.33 µM) | 2 µg/mL (≈ 3.66 µM) |
| Cc1c(CN2CCN(c3ccccn3)CC2)cc(-c2ccc(Cl)cc2)n1-c1ccc(F)cc1F [compound 47, 1-{[1-(2,4-difluorophenyl)-5-(4-chlorophenyl)-2-methylpyrrol-3-yl]methyl}-4-(2-pyridyl)piperazine] | – | – | + | 0.25 to 1 µg/mL (≈ 0.522 to 2.09 µM) | 0.25 µg/mL (≈ 0.522 µM) |
| Cc1c(CN2CCN(C(c3ccccc3)c3ccccc3)CC2)cc(-c2ccc(Cl)cc2)n1-c1ccc(F)cc1F [compound 48, 1-{[1-(2,4-difluorophenyl)-5-(4-chlorophenyl)-2-methylpyrrol-3-yl]methyl}-4-(4-diphenylmethyl)piperazine] | >16.0 µg/mL | >16.0 µg/mL | + | – | – |

Source: patent US7763602B2, “Pyrrole derivatives as antimycobacterial compounds” (priority 2002, dated 2010)
